# Test results: patent publication US10155765B2, “Carboxamide inhibitors of IRAK4 activity” (MERCK SHARP & DOHME CORP., priority 2015, dated 2018)
# pIC50: −log10 of the molar value. Counter-ions that a name gives are not always drawn.
# Target: IRAK4 (Homo sapiens (Human), UniProt Q9NWZ3)
# Test: IRAK4 Kinase Assay (IMAP fluorescence polarization)
# Type: biochemical
# Details: GST tagged IRAK4, 100 μM ATP, 30 minutes at 25° C., IMAP FP
# Excerpt: Other assays are known in the literature and could be readily performed by those of skill in the art.
# The reaction is initiated by the addition of ATP.
# Sequence of IRAK4 (Q9NWZ3 whole entry): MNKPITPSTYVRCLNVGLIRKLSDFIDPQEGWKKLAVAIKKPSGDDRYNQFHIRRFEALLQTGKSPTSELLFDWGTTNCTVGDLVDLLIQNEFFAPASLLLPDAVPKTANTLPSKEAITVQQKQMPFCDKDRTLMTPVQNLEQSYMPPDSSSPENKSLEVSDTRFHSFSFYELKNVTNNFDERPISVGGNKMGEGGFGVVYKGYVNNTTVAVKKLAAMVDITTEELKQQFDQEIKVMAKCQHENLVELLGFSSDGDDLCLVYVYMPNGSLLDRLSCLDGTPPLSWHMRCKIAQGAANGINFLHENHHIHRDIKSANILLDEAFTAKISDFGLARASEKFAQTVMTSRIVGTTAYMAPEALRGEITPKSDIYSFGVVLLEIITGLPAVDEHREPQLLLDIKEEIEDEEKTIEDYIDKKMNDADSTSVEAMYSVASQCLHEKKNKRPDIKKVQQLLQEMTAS
row,Compound,pIC50
1,"NC(=O)c1nn(-c2cccnc2)cc1NC(=O)c1cnn2ccc(N3CCNCC3)nc12 [Example 36, N-(3-carbamoyl-1-pyridin-3-yl-1H-pyrazol-4-yl)-5-piperazin-1-ylpyrazolo[1,5-a]pyrimidine-3-carboxamide trifluoroacetate]",7.48
2,"NC(=O)c1nn(-c2ccccn2)cc1NC(=O)c1cnn2ccc(N3CCNCC3)nc12 [Example 37, N-(3-Carbamoyl-1-pyridin-2-yl-1H-pyrazol-4-yl)-5-piperazin-1-ylpyrazolo[1,5-a]pyrimidine-3-carboxamide]",6.00
3,"Cn1cc(NC(=O)c2cnn3ccc(N4CCNC(=O)C4)nc23)c(C(N)=O)n1 [Example 38, N-(3-Carbamoyl-1-methyl-1H-pyrazol-4-yl)-5-(3-oxopiperazin-1-yl)pyrazolo[1,5-a]pyrimidine-3-carboxamide]",6.40
4,"NC(=O)c1ncccc1NC(=O)c1cnn2cccnc12 [Example 41, N-(2-Carbamoylpyridin-3-yl)pyrazolo[1,5-a]pyrimidine-3-carboxamide]",5.36
5,"Cn1cc(NC(=O)c2ccc3cccnn23)c(C(N)=O)n1 [Example 43, N-(3-carbamoyl-1-methyl-1H-pyrazol-4-yl)pyrrolo[1,2-b]pyridazine-7-carboxamide trifluoroacetate]",7.57
6,"NC(=O)c1nn(-c2cccnc2)cc1NC(=O)c1cnn2cccnc12 [Example 44, N-(3-carbamoyl-1-pyridin-3-yl-1H-pyrazol-4-yl)pyrazolo[1,5-a]pyrimidine-3-carboxamide]",7.23
7,"NC(=O)c1ccncc1NC(=O)c1cnn2cccnc12 [Example 45, N-(4-carbamoylpyridin-3-yl)pyrazolo[1,5-a]pyrimidine-3-carboxamide hydrochloride]",5.09
8,"CC(C)(C)OC(=O)N1CCC(n2cc(NC(=O)c3cnn4cccnc34)c(C(N)=O)n2)CC1 [Example 46, tert-butyl 4-{3-carbamoyl-4-[(pyrazolo[1,5-a]pyrimidin-3-ylcarbonyl)amino]-1H-pyrazol-1-yl}piperidine-1-carboxylate]",6.17
9,"NC(=O)c1nn(C2CCNCC2)cc1NC(=O)c1cnn2cccnc12 [Example 47, N-(3-carbamoyl-1-piperidin-4-yl-1H-pyrazol-4-yl)pyrazolo[1,5-a]pyrimidine-3-carboxamide hydrochloride]",6.33
10,"CS(=O)(=O)N1CCC(n2cc(NC(=O)c3cnn4cccnc34)c(C(N)=O)n2)CC1 [Example 48, N-{3-carbamoyl-1-[1-(methylsulfonyl)piperidin-4-yl]-1H-pyrazol-4-yl}pyrazolo[1,5-a]pyrimidine-3-carboxamide]",6.19
11,"NC(=O)c1cnccc1NC(=O)c1cnn2cccnc12 [Example 49, N-(3-carbamoylpyridin-4-yl)pyrazolo[1,5-a]pyrimidine-3-carboxamide hydrochloride]",6.15
12,"NC(=O)c1sccc1NC(=O)c1cnn2cccnc12 [Example 50, N-(2-carbamoylthiophen-3-yl)pyrazolo[1,5-a]pyrimidine-3-carboxamide hydrochloride]",5.46
13,"CC(C)(C)c1cc(NC(=O)c2cnn3cccnc23)c(C(N)=O)s1 [Example 51, N-(5-tert-butyl-2-carbamoylthiophen-3-yl)pyrazolo[1,5-a]pyrimidine-3-carboxamide hydrochloride]",5.07
14,"NC(=O)c1ccccc1NC(=O)c1cnn2cccnc12 [Example 52, N-(2-carbamoylphenyl)pyrazolo[1,5-a]pyrimidine-3-carboxamide hydrochloride]",5.12
15,"NC(=O)c1n[nH]cc1NC(=O)c1cnn2cccnc12 [Example 53, N-(3-carbamoyl-1H-pyrazol-4-yl)pyrazolo[1,5-a]pyrimidine-3-carboxamide trifluoroacetate]",6.15
16,"NC(=O)c1cc(S(N)(=O)=O)c(Cl)cc1NC(=O)c1cnn2cccnc12 [Example 54, N-(2-carbamoyl-5-chloro-4-sulfamoylphenyl)pyrazolo[1,5-a]pyrimidine-3-carboxamide trifluoroacetate]",6.51
17,"NC(=O)c1cc(Br)ccc1NC(=O)c1cnn2cccnc12 [Example 55, N-(4-bromo-2-carbamoylphenyl)pyrazolo[1,5-a]pyrimidine-3-carboxamide hydrochloride]",< 5.30
18,"Cn1cc(NC(=O)c2csc3nccnc23)c(C(N)=O)n1 [Example 56, N-(3-Carbamoyl-1-methyl-1H-pyrazol-4-yl)thieno[2,3-b]pyrazine-7-carboxamide]",7.16
19,"CNC(=O)c1nn(CCO)cc1NC(=O)c1ccc2cnc(N[C@@H]3CCCC[C@@H]3N)nn12 [Example 65, 2-{[(1R,2S)-2-aminocyclohexyl]amino}-N-[1-(2-hydroxyethyl)-3-(methylcarbamoyl)-1H-pyrazol-4-yl]pyrrolo[2,1-f][1,2,4]triazine-7-carboxamide trifluoroacetate]",7.20

# The next compounds have a higher pIC50 than those just listed; values first:
row,pIC50,Compound
1,9.05,"Cn1cc(NC(=O)c2ccc3cnc(NCCN)nn23)c(C(N)=O)n1 [Example 58, 2-[(2-Aminoethyl)amino]-N-(3-carbamoyl-1-methyl-1H-pyrazol-4-yl)pyrrolo[2,1-f][1,2,4]triazine-7-carboxamide]"
2,8.70,"NCCNc1ncc2ccc(C(=O)Nc3cn(CCO)nc3C(N)=O)n2n1 [Example 59, 2-[(2-aminoethyl)amino]-N-[3-carbamoyl-1-(2-hydroxyethyl)-1H-pyrazol-4-yl]pyrrolo[2,1-f][1,2,4]triazine-7-carboxamide trifluoroacetate]"
3,8.52,"CNC(=O)c1nn(C)cc1NC(=O)c1ccc2cnc(NCCN)nn12 [Example 60, 2-[(2-aminoethyl)amino]-N-[1-methyl-3-(methylcarbamoyl)-1H-pyrazol-4-yl]pyrrolo[2,1-f][1,2,4]triazine-7-carboxamide trifluoroacetate]"
4,9.15,"Cn1cc(NC(=O)c2ccc3cnc(N[C@@H]4CCCC[C@@H]4N)nn23)c(C(N)=O)n1 [Example 61, 2-{[(1R,2S)-2-aminocyclohexyl]amino}-N-(3-carbamoyl-1-methyl-1H-pyrazol-4-yl)pyrrolo[2,1-f][1,2,41triazine-7-carboxamide trifluoroacetate]"
5,9.00,"CCn1cc(NC(=O)c2ccc3cnc(N[C@@H]4CCCC[C@@H]4N)nn23)c(C(N)=O)n1 [Example 62, 2-{[(1R,2S)-2-aminocyclohexyl]amino}-N-(3-carbamoyl-1-ethyl-1H-pyrazol-4-yl)pyrrolo[2,1-f][1,2,41triazine-7-carboxamide trifluoroacetate]"
6,8.52,"NC(=O)c1nn(CCO)cc1NC(=O)c1ccc2cnc(N[C@@H]3CCCC[C@@H]3N)nn12 [Example 63, 2-{[(1R,2S)-2-aminocyclohexyl]amino}-N-[3-carbamoyl-1-(2-hydroxyethyl)-1H-pyrazol-4-yl]pyrrolo[2,1-f][1,2,4]triazine-7-carboxamide trifluoroacetate]"
7,7.89,"CNC(=O)c1nn(C)cc1NC(=O)c1ccc2cnc(N[C@@H]3CCCC[C@@H]3N)nn12 [Example 64, 2-{[(1R,2S)-2-aminocyclohexyl]amino}-N-[1-methyl-3-(methylcarbamoyl)-1H-pyrazol-4-yl]pyrrolo[2,1-f][1,2,4]triazine-7-carboxamide trifluoroacetate]"
8,8.22,"COCCn1cc(NC(=O)c2ccc3cnc(N[C@@H]4CCCC[C@@H]4N)nn23)c(C(N)=O)n1 [Example 66, 2-{[(1R,2S)-2-aminocyclohexyl]amino}-N-[3-carbamoyl-1-(2-methoxyethyl)-1H-pyrazol-4-yl]pyrrolo[2,1-f][1,2,4]triazine-7-carboxamide trifluoroacetate]"
